Experiment: Dissolution / release profile of BAEE from the delivery system (USP XXIII dissolution paddle apparatus)
Format: physicochemical
Conditions: PBS pH 7.2, 37±1°C, 100 rpm
Procedure: The dissolution of a coated and a non-coated delivery system according to the present invention was investigated by using the standard USP XXIII dissolution paddle apparatus. The paddle speed was 100 rpm and the dissolution medium was phosphate buffer solution (PBS) pH 7.2 at 37±1°C. PBS was prepared according to the method of USP XXIII. Three replicates for each sample were tested at specific interval times and their mean percent release was calculated.
Two release patterns of example 1, showing the release profiles of BAEE from the system with and without a gelatin enteric coating (capsule) are depicted in Figures 6 and 7, respectively.
Data are expressed as mean ± standard deviation (SD, n=6). (Standard USP XXIII dissolution apparatus is used with Phosphate Buffer Solution (PBS) pH = 7.2 as a dissolution medium. Temperature was 37±1°C and paddle speed was 100 rpm).
Data are expressed as mean ±SD (n=6). (Standard USP XXIII dissolution apparatus is used with PBS pH = 7.2 as a dissolution medium. Temperature was 37±1°C and paddle speed was 100 rpm).

## CCOC(=O)[C@H](CCCN=C(N)N)NC(=O)c1ccccc1 [BAEE, N-α-benzoyl-L-arginine ethylester]
System of Example 1 inserted in gelatin capsule and enteric-coated (Figure 7), compared with non-coated system
  lag time: increased
System of Example 1 not inserted in gelatin capsule (Figure 6), within a short period of time
  amount of drug released after the lag time: whole amount of drug is released
